The values that follow come from ChEMBL document CHEMBL1201862, “PubChem BioAssay data set” (2004).

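Compound exposure: 48 hours, 5 concentrations, 96-well plates. Abbreviation: GI50, concentration required for 50% inhibition of growth.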 Calls of active or inactive are those of the source. No stated cut-off is given here; in the data, active = GI50 up to about 1.1 µM and inactive = higher.

Test in all cases: NCI-60 cell line screen, 48 h
For assay [1], the system named is U-251.
Assay [2] deals with CCRF-CEM.
Assay [3] deals with Malme-3M.
Assay [4] deals with A498.
In assay [5] the test system is HCT-15.
The subject of assay [6] is CAKI-1.
Assay [7] concerns NCI/ADR-RES.
Assay [8] deals with HCT-116.
The test system of assay [9] is OVCAR-5.
Assay [10] has as its system MDA-MB-435.
Assay [11] concerns UO-31.
Assay [12] has as its system OVCAR-3.
The subject of assay [13] is HOP-62.
For assay [14], the system named is COLO 205.
In assay [15] the test system is IGROV-1.
In assay [16] the test system is SN12C.
The subject of assay [17] is OVCAR-8.
For assay [18], the system named is SF-268.
Assay [19] deals with EKVX.
For assay [20], the system named is 786-0.

Take `O=C(C[C@H](NC(=O)OCc1ccccc1)C(=O)NC1Cc2ccccc2OC1=O)OCc1ccccc1` (some centres not stated): the GI50 in assay [1] was > 100 µM (inactive); in [2], 17.4 µM (inactive); in assay [3], > 100 µM (inactive); in assay [4], > 100 µM (inactive); in assay [5] it was 46 µM; in [6], 70 µM (inactive). In addition, the GI50 in [7] was > 100 µM (inactive); in assay [8] it was 29.2 µM (inactive); in [9], > 100 µM (inactive); in assay [10], > 100 µM (inactive); in assay [11] it was > 100 µM (inactive); in assay [12], > 100 µM (inactive). The GI50 is > 100 µM (inactive) in assay [13]; > 100 µM (inactive) in assay [14]; > 100 µM (inactive) in assay [15]; 36.4 µM (inactive) in assay [16]; > 100 µM (inactive) in [17].
As to `CC1=CC(=O)[C@@H](O)[C@]2(C)[C@H]3[C@@]4(O)OC[C@]35[C@H]([C@@H](C)[C@H]4O)[C@@H](O)C(=O)O[C@@H]5C[C@@H]12`, the GI50 in [1] is 0.0509 µM (active); in assay [18] it was 0.231 µM (active); in assay [2] it was 0.261 µM (active); in [19], 0.771 µM (active); in assay [3] it was 0.0438 µM (active); in assay [4], 0.448 µM (active). In addition, the GI50 was 0.175 µM in [5]; 0.811 µM (active) in assay [6]; 2.29 µM (inactive) in assay [7]; 0.0428 µM (active) in [8]; 0.706 µM (active) in assay [9]; 0.232 µM (active) in assay [10]. The GI50 in assay [20] was 0.349 µM (active); in [11] it was 0.416 µM (active); in assay [12] it was 0.247 µM (active); in [13], 0.21 µM (active); in assay [14] it was 0.543 µM (active); in assay [15], 0.106 µM (active). The GI50 in assay [17] is 0.279 µM (active).
In the case of `CCOC(=O)NC(C(F)(F)F)(C(F)(F)F)P(=O)(OCC(C)C)OCC(C)C`, the GI50 in assay [1] was 5.98 µM (inactive); in [18] it was 11.1 µM (inactive); in assay [2] it was 2.67 µM (inactive); in [19] it was 21.6 µM (inactive); in [3] it was 16.2 µM (inactive); in assay [4], 41.9 µM (inactive). For the same molecule, the GI50 was 4.18 µM in [5]; 27.9 µM (inactive) in [6]; 5.05 µM (inactive) in assay [7]; 2.55 µM (inactive) in [8]; 18.6 µM (inactive) in assay [9]; 15.5 µM (inactive) in assay [10]. The GI50 in [11] was 7.35 µM (inactive); in assay [12], 19.1 µM (inactive); in assay [13] it was 30 µM (inactive); in assay [14] it was 10.2 µM (inactive); in [15] it was 10.2 µM (inactive); in [16], 16.2 µM (inactive). For the same molecule, the GI50 in assay [17] is 5.41 µM (inactive).
As for `CN(Cc1cnc2nc(N)nc(N)c2n1)c1ccc(C(=O)NC(CCC(=O)O)C(=O)O)cc1C(F)(F)F` (configuration not stated), the GI50 is < 0.01 µM (active) in [1]; < 0.01 µM (active) in [18]; < 0.01 µM (active) in [2]; > 27 µM (inactive) in [19]; > 100 µM (inactive) in assay [3]; < 0.01 µM (active) in assay [4]. Further, the GI50 was less than 0.01 µM in assay [5]; < 0.01 µM (active) in assay [6]; < 0.01 µM (active) in [7]; < 0.01 µM (active) in assay [9]; < 0.01 µM (active) in assay [10]; < 0.01 µM (active) in assay [11]. Besides, the GI50 in assay [14], in [15], in [16] and in [17] was < 0.01 µM (active) in each case.
Consider `Cc1occc1/C(S)=N\c1ccc(Cl)c(C(=O)OCC(F)(F)F)c1`, for which the GI50 was 19 µM (inactive) in assay [1]; 20.7 µM (inactive) in [18]; 17.9 µM (inactive) in [2]; 25.5 µM (inactive) in assay [19]; 29.8 µM (inactive) in assay [3]; 15 µM (inactive) in assay [4]. For the same molecule, the GI50 in [5] is 19.6 µM; in assay [6], 14.7 µM (inactive); in [7], 17.8 µM (inactive); in assay [8], 17.9 µM (inactive); in assay [9], 34.6 µM (inactive); in assay [10], 20.3 µM (inactive). Moreover, the GI50 in [20] was 18.7 µM (inactive); in assay [11] it was 19.4 µM (inactive); in assay [12], 29.6 µM (inactive); in assay [14] it was 22.4 µM (inactive); in assay [15] it was 18.4 µM (inactive); in [16], 18.8 µM (inactive). Moreover, in assay [17], the GI50 was 16.7 µM (inactive).
Turning to `C/C(=C\CNc1ncnc2c1ncn2CCC(=O)OC(C)(C)C)CO`, the GI50 in assay [18], in assay [2], in assay [19], in assay [3], in assay [4] and in [6] was > 100 µM (inactive) throughout. Also, the GI50 in assay [7], in assay [8], in assay [9], in assay [10], in assay [20] and in [11] was > 100 µM (inactive) throughout. The GI50 in [12], in assay [13], in assay [14], in [15], in assay [16] and in assay [17] was > 100 µM (inactive) throughout.
Turning to `O=C1CC2(CCC(O)(c3cccs3)C(C(=O)c3cccs3)C2)C(=O)c2ccccc2N1` (configuration not stated), the GI50 in [1] is 90.4 µM (inactive); in assay [18] it was > 100 µM (inactive); in assay [2] it was 22.5 µM (inactive); in assay [19], > 100 µM (inactive); in [3], > 100 µM (inactive); in assay [4], > 100 µM (inactive). Further, the GI50 in [5] was 28.5 µM; in assay [6] it was > 100 µM (inactive); in [7], 67.1 µM (inactive); in assay [8] it was 53 µM (inactive); in [9], > 100 µM (inactive); in assay [10], > 100 µM (inactive). Besides, the GI50 in assay [11] is > 100 µM (inactive); in assay [12] it was 63.8 µM (inactive); in [13] it was > 100 µM (inactive); in [14] it was 33.7 µM (inactive); in [15] it was > 100 µM (inactive); in assay [16], > 100 µM (inactive). Besides, in assay [17], the GI50 is > 100 µM (inactive).
`CSC(=NC1=NC(C(F)(F)F)(C(F)(F)F)N=C(c2ccccc2)O1)SC`: the GI50 in [1] was 4.12 µM (inactive); in assay [18], 5.07 µM (inactive); in assay [2], 6.92 µM (inactive); in assay [19], 9.27 µM (inactive); in assay [3], 16.3 µM (inactive); in assay [4], 17.7 µM (inactive). The GI50 in [5] was 4.88 µM; in assay [6], 4.49 µM (inactive); in assay [7], 5.31 µM (inactive); in assay [8], 4.01 µM (inactive); in [9], 26.4 µM (inactive); in [10], 17.5 µM (inactive). In addition, the GI50 in [20] was 16.4 µM (inactive); in assay [11], 24 µM (inactive); in assay [12] it was 7.46 µM (inactive); in assay [13] it was 9.1 µM (inactive); in [14], 14.6 µM (inactive); in assay [16], 17.1 µM (inactive). In addition, the GI50 in [17] is 5.98 µM (inactive).
As for `COc1ccc(N2C(=O)C3c4[nH]c5ccc(OC)cc5c4C4CCC(C(C)C)CC4C3C2=O)cc1` (configuration not stated), the GI50 in [1] was 26.4 µM (inactive); in assay [18], 19.5 µM (inactive); in assay [2], 7.73 µM (inactive); in assay [19], > 93.3 µM (inactive); in assay [4], 28 µM (inactive); in assay [5], greater than 100 µM. The GI50 is > 100 µM (inactive) in [6]; > 100 µM (inactive) in [7]; > 55.3 µM (inactive) in [8]; > 100 µM (inactive) in [9]; > 100 µM (inactive) in [10]; 14.9 µM (inactive) in assay [20]. Also, the GI50 was > 100 µM (inactive) in assay [11]; > 100 µM (inactive) in assay [12]; 12 µM (inactive) in [13]; > 100 µM (inactive) in [14]; > 38 µM (inactive) in [15]; > 100 µM (inactive) in [16]. The GI50 in assay [17] was > 29.4 µM (inactive).
Take `N/N=C(\C(=O)Nc1ccc(Cl)cc1Cl)C(c1cnc2ccccc2n1)[N+](=O)[O-]` (configuration not stated): the GI50 in assay [1], in assay [18], in assay [2], in assay [19], in [3] and in assay [4] was > 100 µM (inactive) throughout. For the same molecule, the GI50 was greater than 100 µM in assay [5]; > 100 µM (inactive) in assay [6]; > 100 µM (inactive) in assay [7]; 26.7 µM (inactive) in assay [8]; > 100 µM (inactive) in assay [9]; > 100 µM (inactive) in assay [10]. Moreover, the GI50 is > 100 µM (inactive) in assay [20]; 44.2 µM (inactive) in [11]; > 100 µM (inactive) in assay [12]; > 100 µM (inactive) in assay [13]; 8.47 µM (inactive) in [15]; > 100 µM (inactive) in assay [16]. The GI50 in assay [17] is > 100 µM (inactive).
As for `COCn1c(C)c(C)c2c(=O)oc(N(C)C)nc21`, the GI50 in assay [1] is > 100 µM (inactive); in assay [2], > 100 µM (inactive); in [19], > 100 µM (inactive); in assay [3], > 100 µM (inactive); in assay [4], 39 µM (inactive); in assay [5] it was greater than 100 µM. For the same molecule, the GI50 was 13.6 µM (inactive) in [6]; > 100 µM (inactive) in assay [7]; > 100 µM (inactive) in assay [8]; > 100 µM (inactive) in assay [9]; > 100 µM (inactive) in assay [10]; > 100 µM (inactive) in assay [20]. For the same molecule, the GI50 in [11] was 9.82 µM (inactive); in [13], > 100 µM (inactive); in assay [14] it was > 100 µM (inactive); in [15] it was > 100 µM (inactive); in assay [16], > 100 µM (inactive); in assay [17], > 100 µM (inactive).
